Patent publication US20110123600A1, “Use of alkylureas for treating acne” (priority 2005, published 2011)

How the values were obtained:
acne lesions = experiment: BU aqueous solution applied to acne lesions in adolescents; format: in vivo; conditions: 0.5 molar (5.8% w/v) aqueous solution, twice daily, 5 adolescents
Description: BU in an squeous solution: A 0.5 molar (5.8% w/v) solution of BU was applied twice daily with Q tips to acne lesions in 5 adolescents. BU was applied to cystic purulent lesions, to non cystic lesions with erythema and to early lesions with minimal inflammation. The inflammatory response resolved in all lesions within 24-48 hours, whereas purulent cystic lesions healed without scarring within 3-7 days.

Staphylococcus aureus = experiment: Aerobic plate count after one hour contact with butylurea solution; format: cell-based; conditions: 0.4M BU, vs saline control
Description: (§1) Preparation of Sample: 11.6 grams of butyl urea (BU) sample was weighed accurately and dissolved in de-ionized water to 100 ml into 100 ml volumetric flask and mixed to form a 1M (11.6% w/v) solution. Then, 10.0 ml of the 1M solution was mixed with 12.7 ml de-ionized water to form a 0.44M (5.1% w/v) solution. (10.0 ml×1.0M÷22.7 ml=0.44M). Finally, the 0.44M solution was filtered through sterile syringe filters to sterilize.
(§2) Procedure: For the 0.4M butylurea solutions, 4.5 ml was aliquoted into seven (7) 16×150 mm sterile glass test tubes. 4.5 ml sterile physiological saline was also aliquoted into seven (7) 16×150 […] sterile glass test tubes as a control.
(§3) 0.6 ml of culture suspension was inoculated into 0.44M BU and saline control tube for each organism tested and mixed. After one hour contact time a 1.0 ml sample culture mixer was diluted serially into 10^6 into 9.0 ml GBL Stat Broth (TSB; 0.5% Leethen; 4% Tween 20 and 0.1% […]).
(§4) One ml Aerobic Plate Count was performed from each dilution tubes using Trypticase Soy Agar. Plates were incubated at 37±° C. for 48 hours. Except Candida albicans plates were poured with Sabourad Dextrose Agar and incubated at 20 to 25° C. for 5 to 7 days. Colonies were counted using a Quebec Colony Counter.

Streptococcus pyogenes = experiment: as above; format: cell-based; conditions: 0.4M BU, vs saline control
Description: as §1, §2, §3, §4

Candida albicans = experiment: Plate count after one hour contact with butylurea solution; format: cell-based; conditions: 0.4M BU, vs saline control
Description: as §1, §2, §3, §4

[1] = system: inflamed cystic lesions of acne; experiment: BU in polymer gel applied topically to patients with inflamed cystic lesions of acne; format: in vivo; conditions: polymer gel releasing 0.4 to 0.5 molar BU, 11 patients
Description: BU in polymer gels: BU incorporated in a polymer gel designed to release the chemical within 30 minutes to 3 hours was administered topically to 11 patients with inflamed cystic lesions of acne. The BU end concentration to be released was between 0.4 to 0.5 molar. Applications to the lesions alone were made 3× daily for 1 week. […] The purulent discharge as well as the inflammatory component of all lesions resolved often within 24 hours.

For `CCCCNC(N)=O` [BU, butyl urea], the “Time to healing of purulent cystic lesions without scarring” value (acne lesions) was 3 to 7 days, the “Time to resolution of inflammatory response in all lesions” value (acne lesions) was 24 to 48 h and the “Reduction in bacterial count” value (Staphylococcus aureus) was “Not Active”. For the same compound, the “log Reduction in bacterial count” value (Streptococcus pyogenes) was 2 log Reduction, the “log Reduction in count” value (Candida albicans) was 0.4 log Reduction and the Local adverse reactions ([1]; topical 3x daily for 1 week) was “no local adverse reactions were noted”. The “Resolution of lesions by the end of the treatment” value ([1]; topical 3x daily for 1 week) was “Most of the lesions resolved” and the “Time to resolution of purulent discharge and inflammatory component of all lesions” value ([1]; topical 3x daily, 'often') was no more than 24 h.
